Literature values in article PMC4447334 (Journal of the American Chemical Society, 2015).

Tests used:
PAD1 = molecular target: T1, PAD1 (Homo sapiens, UniProt Q9ULC6); conditions: approximate, from chart in Figure 6A
T1 sequence (Q9ULC6 1-663): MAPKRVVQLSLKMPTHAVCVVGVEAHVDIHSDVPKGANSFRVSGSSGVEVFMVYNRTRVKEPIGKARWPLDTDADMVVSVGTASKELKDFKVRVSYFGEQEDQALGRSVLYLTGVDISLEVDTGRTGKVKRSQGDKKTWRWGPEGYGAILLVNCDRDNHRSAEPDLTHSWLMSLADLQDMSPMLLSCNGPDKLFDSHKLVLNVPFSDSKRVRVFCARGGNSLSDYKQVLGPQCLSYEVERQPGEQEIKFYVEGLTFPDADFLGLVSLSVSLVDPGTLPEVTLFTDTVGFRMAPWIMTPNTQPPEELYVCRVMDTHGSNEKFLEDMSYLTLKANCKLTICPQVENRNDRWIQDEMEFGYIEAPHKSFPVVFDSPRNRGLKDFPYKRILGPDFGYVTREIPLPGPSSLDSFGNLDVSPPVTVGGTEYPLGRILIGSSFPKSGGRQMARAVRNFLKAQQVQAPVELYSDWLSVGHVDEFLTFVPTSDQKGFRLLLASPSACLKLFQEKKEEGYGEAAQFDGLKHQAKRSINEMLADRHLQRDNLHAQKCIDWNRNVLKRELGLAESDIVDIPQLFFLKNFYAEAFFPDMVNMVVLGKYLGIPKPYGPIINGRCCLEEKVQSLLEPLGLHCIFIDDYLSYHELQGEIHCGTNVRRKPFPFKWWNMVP

PAD3 = molecular target: T2, PAD3 (Homo sapiens, UniProt Q9ULW8); conditions: exact value reported
T2 sequence (Q9ULW8 1-664): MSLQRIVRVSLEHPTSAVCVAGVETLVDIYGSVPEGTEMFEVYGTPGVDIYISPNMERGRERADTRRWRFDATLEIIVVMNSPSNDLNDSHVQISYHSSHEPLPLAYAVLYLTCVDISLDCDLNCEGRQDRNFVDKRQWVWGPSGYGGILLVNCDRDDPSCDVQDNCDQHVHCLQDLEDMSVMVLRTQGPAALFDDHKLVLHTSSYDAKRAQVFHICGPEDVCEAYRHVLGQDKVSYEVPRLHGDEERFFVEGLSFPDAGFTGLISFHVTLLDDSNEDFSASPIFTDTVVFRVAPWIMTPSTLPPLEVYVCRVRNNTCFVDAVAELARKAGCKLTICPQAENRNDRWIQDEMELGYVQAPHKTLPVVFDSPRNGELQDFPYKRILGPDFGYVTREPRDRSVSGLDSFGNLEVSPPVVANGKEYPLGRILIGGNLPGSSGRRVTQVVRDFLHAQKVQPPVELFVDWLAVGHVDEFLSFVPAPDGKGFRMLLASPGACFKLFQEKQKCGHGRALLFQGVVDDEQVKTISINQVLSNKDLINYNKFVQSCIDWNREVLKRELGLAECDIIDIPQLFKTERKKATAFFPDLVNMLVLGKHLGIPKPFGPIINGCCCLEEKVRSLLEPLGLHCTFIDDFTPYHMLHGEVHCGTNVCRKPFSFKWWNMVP

PAD4 = PAD4 (Homo sapiens, UniProt Q9UM07); conditions: approximate, from chart in Figure 6A
Sequence of PAD4 (Q9UM07 whole entry): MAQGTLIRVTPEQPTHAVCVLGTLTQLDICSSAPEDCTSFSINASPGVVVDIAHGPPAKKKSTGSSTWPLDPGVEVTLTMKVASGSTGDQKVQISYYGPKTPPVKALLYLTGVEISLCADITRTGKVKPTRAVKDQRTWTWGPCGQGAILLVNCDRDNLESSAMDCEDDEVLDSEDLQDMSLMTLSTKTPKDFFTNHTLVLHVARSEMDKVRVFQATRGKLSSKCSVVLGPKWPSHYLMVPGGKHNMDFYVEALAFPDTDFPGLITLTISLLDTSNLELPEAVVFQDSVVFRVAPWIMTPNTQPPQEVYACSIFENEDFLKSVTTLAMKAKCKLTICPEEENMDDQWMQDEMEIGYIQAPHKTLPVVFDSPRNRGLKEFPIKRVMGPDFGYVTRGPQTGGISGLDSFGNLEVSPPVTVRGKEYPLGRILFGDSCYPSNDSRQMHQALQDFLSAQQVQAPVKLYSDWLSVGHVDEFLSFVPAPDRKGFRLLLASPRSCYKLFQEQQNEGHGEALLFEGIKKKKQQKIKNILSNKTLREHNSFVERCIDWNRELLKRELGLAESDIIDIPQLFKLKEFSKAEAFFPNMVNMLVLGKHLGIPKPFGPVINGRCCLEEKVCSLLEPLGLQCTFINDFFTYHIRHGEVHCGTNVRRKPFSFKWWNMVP

IC50 (PAD1): ~250 µM
IC50 (PAD3): 65 µM
IC50 (PAD4): ~625 µM
Compound: N=C(CF)NCCCC[C@H](NC(=O)c1ccccc1)C(N)=O [F4-amidine]
